Results published in patent US6914045B2, “Glycopeptide antibiotics” (Wyeth Holdings Corporation, priority 2001, dated 2005).
In brackets after ≈: the same amount, converted by molar mass. Each block holds one molecule with its values, some of them ahead of it.

What was measured:
Experiment in all cases: in vitro antibacterial evaluation, MIC by broth dilution
Assay type in all cases: cell-based
Escherichia coli = details: 18 hours at 35° C.
Outline: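 Broth dilution in Muller-Hinton II medium per NCCLS standard M7-A2, with an inoculum of 5×10^5 CFU/mL and antibiotic tested over 64-0.06 μg/mL. MIC was taken as the lowest concentration inhibiting visible growth.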

Enterococcus sp. = details: broth dilution, 18 hours at 35° C.
Outline: (§1)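 Following National Committee for Clinical Laboratory Standards recommendations (M7-A2), susceptibility was measured by dilution in Muller-Hinton II […]. Bacteria were seeded at 5×10^5 CFU/mL against compound concentrations from 64 down to 0.06 μg/mL.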

Streptococcus sp. = details: broth dilution, 18 hours at 35° C.
Outline: as §1

Staphylococcus sp. = details: broth dilution, 18 hours at 35° C.; for MIC Staphylococcus aureus (ATCC 29213): strain ATCC 29213; for MIC Staphylococcus aureus (GC 1131): strain GC 1131; for MIC Staphylococcus aureus (GC 3051): strain GC 3051; for MIC Staphylococcus aureus (GC 3053): strain GC 3053; for MIC Staphylococcus aureus (GC 4541): strain GC 4541; for MIC Staphylococcus aureus (GC 4542): strain GC 4542; for MIC Staphylococcus aureus-SMITH (GC 4543): strain GC 4543; for MIC Staphylococcus aureus (GC 4544): strain GC 4544; for MIC Staphylococcus aureus (GC 4545): strain GC 4545; for MIC Staphylococcus haemolyticus (GC 4546): strain GC 4546; for MIC Coagulase Negative Staphylococcus (GC 4547): strain GC 4547; for MIC Coagulase Negative Staphylococcus (GC 4548): strain GC 4548; for MIC Coagulase Negative Staphylococcus (GC 4549): strain GC 4549; for MIC Coagulase Negative Staphylococcus (GC 4551): strain GC 4551
Outline: as §1

MIC Escherichia coli (ATCC 25922) (Escherichia coli): >128 µg/mL
MIC Escherichia coli (GC 4559) (Escherichia coli): >128 µg/mL
MIC Escherichia coli (GC 4560) (Escherichia coli): 4 µg/mL (≈ 2.29 µM)
MIC Enterococcus avium (GC 4558) (Enterococcus sp.; Enterococcus avium (GC 4558)): 128 µg/mL (≈ 73.3 µM)
MIC Enterococcus faecalis (ATCC 29212) (Enterococcus sp.; Enterococcus faecalis (ATCC 29212)): >128 µg/mL
MIC Enterococcus faecalis (GC 4552) (Enterococcus sp.; Enterococcus faecalis (GC 4552)): >128 µg/mL
MIC Enterococcus faecalis (GC 4553) (Enterococcus sp.; Enterococcus faecalis (GC 4553)): 128 µg/mL (≈ 73.3 µM)
MIC Enterococcus faecalis (GC 4554) (Enterococcus sp.; Enterococcus faecalis (GC 4554)): >128 µg/mL
MIC Enterococcus faecalis (GC 6189) (Enterococcus sp.; Enterococcus faecalis (GC 6189)): >128 µg/mL
MIC Enterococcus faecium (GC 2243) (Enterococcus sp.; Enterococcus faecium (GC 2243)): >128 µg/mL
MIC Enterococcus faecium (GC 4556) (Enterococcus sp.; Enterococcus faecium (GC 4556)): >128 µg/mL
MIC Enterococcus faecium (GC 4557) (Enterococcus sp.; Enterococcus faecium (GC 4557)): 64 µg/mL (≈ 36.7 µM)
MIC Enterococcus avium (GC 4558) (Enterococcus sp.): 128 µg/mL (≈ 73.3 µM)
MIC Enterococcus faecalis (ATCC 29212) (Enterococcus sp.): >128 µg/mL
MIC Enterococcus faecalis (GC 2242) (Enterococcus sp.): >128 µg/mL
MIC Enterococcus faecalis (GC 2691) (Enterococcus sp.): >128 µg/mL
MIC Enterococcus faecalis (GC 3059) (Enterococcus sp.): >128 µg/mL
MIC Enterococcus faecalis (GC 4552) (Enterococcus sp.): >128 µg/mL
MIC Enterococcus faecalis (GC 4553) (Enterococcus sp.): 128 µg/mL (≈ 73.3 µM)
MIC Enterococcus faecalis (GC 4554) (Enterococcus sp.): >128 µg/mL
MIC Enterococcus faecalis (GC 6189) (Enterococcus sp.): >128 µg/mL
MIC Enterococcus faecium (GC 2243) (Enterococcus sp.): >128 µg/mL
MIC Enterococcus faecium (GC 4556) (Enterococcus sp.): >128 µg/mL
MIC Enterococcus faecium (GC 4557) (Enterococcus sp.): 64 µg/mL (≈ 36.7 µM)
MIC Enterococcus faecalis (GC 2242) (Enterococcus sp.; strain GC 2242): >128 µg/mL
MIC Enterococcus faecalis (GC 2691) (Enterococcus sp.; strain GC 2691): >128 µg/mL
MIC Enterococcus faecalis (GC 3059) (Enterococcus sp.; strain GC 3059): >128 µg/mL
MIC Streptococcus agalactiae (GC 4564) (Streptococcus sp.): >128 µg/mL
MIC Streptococcus pneumoniae (ATCC 6301) (Streptococcus sp.): 128 µg/mL (≈ 73.3 µM)
MIC Streptococcus pneumoniae (GC 1894) (Streptococcus sp.): 64 µg/mL (≈ 36.7 µM)
MIC Streptococcus pneumoniae (GC 4565) (Streptococcus sp.): 128 µg/mL (≈ 73.3 µM)
MIC Streptococcus pyogenes (GC 4563) (Streptococcus sp.): >128 µg/mL
MIC Streptococcus pneumoniae (ATCC 6301) (Streptococcus sp.; strain ATCC 6301): 128 µg/mL (≈ 73.3 µM)
MIC Streptococcus pneumoniae (GC 1894) (Streptococcus sp.; strain GC 1894): 64 µg/mL (≈ 36.7 µM)
MIC Streptococcus pyogenes (GC 4563) (Streptococcus sp.; strain GC 4563): >128 µg/mL
MIC Streptococcus agalactiae (GC 4564) (Streptococcus sp.; strain GC 4564): >128 µg/mL
MIC Streptococcus pneumoniae (GC 4565) (Streptococcus sp.; strain GC 4565): 128 µg/mL (≈ 73.3 µM)
MIC Staphylococcus aureus (ATCC 29213) (Staphylococcus sp.): >128 µg/mL
MIC Staphylococcus aureus (GC 1131) (Staphylococcus sp.): >128 µg/mL
MIC Staphylococcus aureus (GC 3051) (Staphylococcus sp.): >128 µg/mL
MIC Staphylococcus aureus (GC 3053) (Staphylococcus sp.): >128 µg/mL
MIC Staphylococcus aureus (GC 4541) (Staphylococcus sp.): >128 µg/mL
MIC Staphylococcus aureus (GC 4542) (Staphylococcus sp.): >128 µg/mL
MIC Staphylococcus aureus-SMITH (GC 4543) (Staphylococcus sp.): >128 µg/mL
MIC Staphylococcus aureus (GC 4544) (Staphylococcus sp.): >128 µg/mL
MIC Staphylococcus aureus (GC 4545) (Staphylococcus sp.): >128 µg/mL
MIC Coagulase Negative Staphylococcus (GC 4547) (Staphylococcus sp.): >128 µg/mL
MIC Coagulase Negative Staphylococcus (GC 4548) (Staphylococcus sp.): >128 µg/mL
MIC Coagulase Negative Staphylococcus (GC 4549) (Staphylococcus sp.): >128 µg/mL
MIC Coagulase Negative Staphylococcus (GC 4551) (Staphylococcus sp.): >128 µg/mL
MIC Coagulase Negative Staphylococcus (GC 6257) (Staphylococcus sp.; strain GC 6257): >128 µg/mL
SMILES: CC(c1ccccc1)C1NC(=O)CNC(=O)C(CO)NC(=O)C(C(O)C2CN(Cc3ccccc3)C(=NCc3ccccc3)N2C2OC(CO)C(O)C(O)C2O)NC(=O)C(C(O)C2CN(Cc3ccccc3)C(=NCc3ccccc3)N2Cc2ccccc2)NC(=O)C(Cc2ccc(OC3OC(CO)C(OC4OC(CO)C(O)C(O)C4O)C(O)C3O)cc2)NC1=O (stereo not drawn) [Example 62, Cyclo[glycyl-β-methylphenylalanyl-O-(4-O-hexopyranosylhexopyranosyl)tyrosyl-3-[1,3-dibenzyl-2-(benzylimino)imidazolidin-4-yl]seryl-3-[1-benzyl-2-(benzylimino)-3-hexopyranosylimidazolidin-4-yl]serylseryl]]
MIC Staphylococcus haemolyticus (GC 4546) (Staphylococcus sp.): >128 µg/mL

MIC Escherichia coli (ATCC 25922) (Escherichia coli): 32 µg/mL (≈ 22.8 µM)
MIC Escherichia coli (GC 4559) (Escherichia coli): 32 µg/mL (≈ 22.8 µM)
MIC Escherichia coli (GC 4560) (Escherichia coli): 1 µg/mL (≈ 0.713 µM)
MIC Enterococcus avium (GC 4558) (Enterococcus sp.): 2 µg/mL (≈ 1.43 µM)
MIC Enterococcus faecalis (ATCC 29212) (Enterococcus sp.): 1 µg/mL (≈ 0.713 µM)
MIC Enterococcus faecalis (GC 2242) (Enterococcus sp.): 2 µg/mL (≈ 1.43 µM)
MIC Enterococcus faecalis (GC 2691) (Enterococcus sp.): 2 µg/mL (≈ 1.43 µM)
MIC Enterococcus faecalis (GC 3059) (Enterococcus sp.): 1 µg/mL (≈ 0.713 µM)
MIC Enterococcus faecalis (GC 4552) (Enterococcus sp.): 2 µg/mL (≈ 1.43 µM)
MIC Enterococcus faecalis (GC 4553) (Enterococcus sp.): 2 µg/mL (≈ 1.43 µM)
MIC Enterococcus faecalis (GC 4554) (Enterococcus sp.): 2 µg/mL (≈ 1.43 µM)
MIC Enterococcus faecalis (GC 6189) (Enterococcus sp.): 1 µg/mL (≈ 0.713 µM)
MIC Enterococcus faecium (GC 2243) (Enterococcus sp.): 2 µg/mL (≈ 1.43 µM)
MIC Enterococcus faecium (GC 4556) (Enterococcus sp.): 1 µg/mL (≈ 0.713 µM)
MIC Enterococcus faecium (GC 4557) (Enterococcus sp.): 2 µg/mL (≈ 1.43 µM)
MIC Enterococcus faecalis (ATCC 29212) (Enterococcus sp.; inoculum 5×10^5 CFU/mL, strain ATCC 29212): 1 µg/mL (≈ 0.713 µM)
MIC Enterococcus faecalis (GC 2242) (Enterococcus sp.; inoculum 5×10^5 CFU/mL, strain GC 2242): 2 µg/mL (≈ 1.43 µM)
MIC Enterococcus faecium (GC 2243) (Enterococcus sp.; inoculum 5×10^5 CFU/mL, strain GC 2243): 2 µg/mL (≈ 1.43 µM)
MIC Enterococcus faecalis (GC 2691) (Enterococcus sp.; inoculum 5×10^5 CFU/mL, strain GC 2691): 2 µg/mL (≈ 1.43 µM)
MIC Enterococcus faecalis (GC 3059) (Enterococcus sp.; inoculum 5×10^5 CFU/mL, strain GC 3059): 1 µg/mL (≈ 0.713 µM)
MIC Enterococcus faecalis (GC 4552) (Enterococcus sp.; inoculum 5×10^5 CFU/mL, strain GC 4552): 2 µg/mL (≈ 1.43 µM)
MIC Enterococcus faecalis (GC 4553) (Enterococcus sp.; inoculum 5×10^5 CFU/mL, strain GC 4553): 2 µg/mL (≈ 1.43 µM)
MIC Enterococcus faecalis (GC 4554) (Enterococcus sp.; inoculum 5×10^5 CFU/mL, strain GC 4554): 2 µg/mL (≈ 1.43 µM)
MIC Enterococcus faecium (GC 4556) (Enterococcus sp.; inoculum 5×10^5 CFU/mL, strain GC 4556): 1 µg/mL (≈ 0.713 µM)
MIC Enterococcus faecium (GC 4557) (Enterococcus sp.; inoculum 5×10^5 CFU/mL, strain GC 4557): 2 µg/mL (≈ 1.43 µM)
MIC Enterococcus avium (GC 4558) (Enterococcus sp.; inoculum 5×10^5 CFU/mL, strain GC 4558): 2 µg/mL (≈ 1.43 µM)
MIC Enterococcus faecalis (GC 6189) (Enterococcus sp.; inoculum 5×10^5 CFU/mL, strain GC 6189): 1 µg/mL (≈ 0.713 µM)
MIC Streptococcus agalactiae (GC 4564) (Streptococcus sp.): 0.25 µg/mL (≈ 0.178 µM)
MIC Streptococcus pneumoniae (ATCC 6301) (Streptococcus sp.): <0.12 µg/mL
MIC Streptococcus pneumoniae (GC 1894) (Streptococcus sp.): <0.12 µg/mL
MIC Streptococcus pneumoniae (GC 4565) (Streptococcus sp.): <0.12 µg/mL
MIC Streptococcus pyogenes (GC 4563) (Streptococcus sp.): 1 µg/mL (≈ 0.713 µM)
MIC Streptococcus pneumoniae (ATCC 6301) (Streptococcus sp.; inoculum 5×10^5 CFU/mL, strain ATCC 6301): <0.12 µg/mL
MIC Streptococcus pneumoniae (GC 1894) (Streptococcus sp.; inoculum 5×10^5 CFU/mL, strain GC 1894): <0.12 µg/mL
MIC Streptococcus pyogenes (GC 4563) (Streptococcus sp.; inoculum 5×10^5 CFU/mL, strain GC 4563): 1 µg/mL (≈ 0.713 µM)
MIC Streptococcus agalactiae (GC 4564) (Streptococcus sp.; inoculum 5×10^5 CFU/mL, strain GC 4564): 0.25 µg/mL (≈ 0.178 µM)
MIC Streptococcus pneumoniae (GC 4565) (Streptococcus sp.; inoculum 5×10^5 CFU/mL, strain GC 4565): <0.12 µg/mL
MIC Staphylococcus aureus (ATCC 29213) (Staphylococcus sp.): 1 µg/mL (≈ 0.713 µM)
MIC Staphylococcus aureus (GC 1131) (Staphylococcus sp.): 1 µg/mL (≈ 0.713 µM)
MIC Staphylococcus aureus (GC 3051) (Staphylococcus sp.): 1 µg/mL (≈ 0.713 µM)
MIC Staphylococcus aureus (GC 3053) (Staphylococcus sp.): 1 µg/mL (≈ 0.713 µM)
MIC Staphylococcus aureus (GC 4541) (Staphylococcus sp.): 1 µg/mL (≈ 0.713 µM)
MIC Staphylococcus aureus (GC 4542) (Staphylococcus sp.): 1 µg/mL (≈ 0.713 µM)
MIC Staphylococcus aureus-SMITH (GC 4543) (Staphylococcus sp.): 1 µg/mL (≈ 0.713 µM)
MIC Staphylococcus aureus (GC 4544) (Staphylococcus sp.): 1 µg/mL (≈ 0.713 µM)
MIC Staphylococcus aureus (GC 4545) (Staphylococcus sp.): 1 µg/mL (≈ 0.713 µM)
MIC Coagulase Negative Staphylococcus (GC 4547) (Staphylococcus sp.): 1 µg/mL (≈ 0.713 µM)
MIC Coagulase Negative Staphylococcus (GC 4548) (Staphylococcus sp.): 0.5 µg/mL (≈ 0.356 µM)
MIC Coagulase Negative Staphylococcus (GC 4549) (Staphylococcus sp.): 0.5 µg/mL (≈ 0.356 µM)
MIC Coagulase Negative Staphylococcus (GC 4551) (Staphylococcus sp.): 1 µg/mL (≈ 0.713 µM)
SMILES: CC(c1ccccc1)C1NC(=O)CNC(=O)C(CO)NC(=O)C(C(O)C2CNC(=N)N2C2OC(CO)C(O)C(O)C2O)NC(=O)C(C(O)C2CNC(=N)N2)NC(=O)C(Cc2ccc(OC3OC(CO)C(OC4OC5COC6(OC5C(O)C4O)C(C)CCCC6C)C(O)C3O)cc2)NC1=O (stereo not shown) [Example 206]
MIC Staphylococcus haemolyticus (GC 4546) (Staphylococcus sp.): 0.5 µg/mL (≈ 0.356 µM)
